Tests used:
Xa factor [1] = assay: anti-Xa activity, Yin-Wessler test; format: biochemical
blood coagulation = assay: APTT test, overall anticoagulant activity
Xa factor [2] = assay: anti-Xa test using a chromogen substrate (method of Teien A.M. and Lie modified); format: biochemical; settings: Xa factor (Sigma) 8 u/ml, substrate 1.33 mM, diluted human plasma, 37° C.
Experimental: In a test using a chromogen substrate, this activity has even been 4000 anti-Xa units/mg (method of Teien A.M. and Lie modified; Thrombosis Research No. 10, 1977, 388-410).
This test consists of using the Xa factor marketed by the Sigma company in solution at 8 u/ml in physiological serum, the concentration of the substrate being 1.33 mM.
To carry out this test it is possible to proceed as follows.
10 μl of solution to be determined and 300 μl of human plasma diluted with Tris maleate buffer 0.02M, […] are mixed.
It is left to incubate one minute at 37° C.
100 μl of the above-said Xa factor (8 u/ml) are added and one minute later, the solution obtained is injected into the substrate.

AT III = assay: affinity for AT III; format: binding

SMILES | anti-Xa activity (Yin-Wessler) (Xa factor [1]) [u/mg] | overall anticoagulant activity (APTT test) (blood coagulation) [u/mg] | Yin-Wessler titres compared with those of heparin (Xa factor [1]; compared with heparin) | selective inhibition activity of the activated X factor or Xa factor of the blood (Xa factor [1]; test not specified) | anti-Xa activity in a test using a chromogen substrate (Xa factor [2]) [anti-Xa units/mg] | affinity for AT III (AT III)
O=C(O)[C@H]1O[C@@H](O[C@H]2[C@H](OS(=O)(=O)O)[C@@H](NS(=O)(=O)O)C(O)O[C@@H]2COS(=O)(=O)O)[C@H](O)[C@@H](O)[C@@H]1O[C@H]1O[C@H](COS(=O)(=O)O)[C@@H](O)[C@H](O)[C@H]1NS(=O)(=O)O (stereo partly shown) | ~7 | – | – | – | – | –
O=C(O)[C@H]1O[C@@H](O[C@H]2[C@H](OS(=O)(=O)O)[C@@H](NS(=O)(=O)O)[C@@H](O[C@H]3[C@H](O)[C@@H](OS(=O)(=O)O)[C@H](O[C@H]4[C@H](O)[C@@H](NS(=O)(=O)O)C(O)O[C@@H]4COS(=O)(=O)O)O[C@H]3C(=O)O)O[C@@H]2COS(=O)(=O)O)[C@H](O)[C@@H](O)[C@@H]1O[C@H]1O[C@H](COS(=O)(=O)O)[C@@H](O)[C@H](O)[C@H]1NS(=O)(=O)O (stereo partly shown) [pentasaccharide 50] | ≥ 2000 | 4 | distinctly higher | very high selective inhibition activity | 4000 | high affinity

— patent US4818816A, “Process for the organic synthesis of oligosaccharides and derivatives thereof” (Choay, S.A., priority 1981, dated 1989)
